#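 Interpolation was linear, between the two tested concentrations surrounding the appropriate level; five concentrations were tested over 48 hours in 96-well plates. At the GI50, growth is halved.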 Activity calls are given as the source filed them. Rule as the data show it: active = GI50 up to about 1.1 µM and inactive = higher. Square brackets hold non-standard residues; d marks the D form. Peptide text beside a SMILES is read from it. * marks the point of attachment. ξ: configuration not given here. Propanoyl(3-(4-MeO-Ph)) = COc1ccc(CCC(=O)*)cc1; Thr(3ξ) = CC(O)[C@H](N)C(=O)O; dNMeL = CN[C@H](CC(C)C)C(=O)O; ξLac = CC(O)C(=O)O
# Columns and labels:
# Test in all cases: inhibition of tumour cell growth, NCI panel, 48 h
# M14 = test system: M14
# NCI-H23 = test system: NCI-H23
# IGROV-1 = test system: IGROV-1
# TK-10 = test system: TK-10
# K562 = test system: K562
# HCC 2998 = test system: HCC 2998
# SW-620 = test system: SW-620
# CAKI-1 = test system: CAKI-1
# SK-MEL-5 = test system: SK-MEL-5
# U-251 = test system: U-251
# OVCAR-8 = test system: OVCAR-8
# SNB-75 = test system: SNB-75
# MDA-MB-231 = test system: MDA-MB-231
# DU-145 = test system: DU-145
# OVCAR-4 = test system: OVCAR-4
# UO-31 = test system: UO-31
# HCT-15 = test system: HCT-15
# CCRF-CEM = test system: CCRF-CEM
# MCF7 = test system: MCF7
# EKVX = test system: EKVX
SMILES,GI50 (M14),GI50 (NCI-H23),GI50 (IGROV-1),GI50 (TK-10),GI50 (K562),GI50 (HCC 2998),GI50 (SW-620),GI50 (CAKI-1),GI50 (SK-MEL-5),GI50 (U-251),GI50 (OVCAR-8),GI50 (SNB-75),GI50 (MDA-MB-231),GI50 (DU-145),GI50 (OVCAR-4),GI50 (UO-31),GI50 (HCT-15) [µM],GI50 (CCRF-CEM),GI50 (MCF7),GI50 (EKVX)
Cc1cc(-c2nc3ccccc3s2)ccc1N,36.8 µM (inactive),40.4 µM (inactive),0.0219 µM (active),0.0302 µM (active),38.8 µM (inactive),5.98 µM (inactive),> 72.4 µM (inactive),43.7 µM (inactive),21.9 µM (inactive),45 µM (inactive),61.5 µM (inactive),35.3 µM (inactive),38.6 µM (inactive),46.6 µM (inactive),4.98 µM (inactive),6.92 µM (inactive),42.3,9.44 µM (inactive),< 0.0133 µM (active),26.6 µM (inactive)
O=[N+]([O-])c1ccc(S(=O)(=O)Cc2ccccc2)c([N+](=O)[O-])c1,1.87 µM (inactive),1.9 µM (inactive),2.6 µM (inactive),1.88 µM (inactive),1.13 µM (inactive),7.43 µM (inactive),1.51 µM (inactive),1.72 µM (inactive),2.12 µM (inactive),2.23 µM (inactive),1.89 µM (inactive),7.48 µM (inactive),2.11 µM (inactive),3.63 µM (inactive),2.2 µM (inactive),1.58 µM (inactive),1.82,0.17 µM (active),1.87 µM (inactive),1.87 µM (inactive)
O=C(NC(=O)c1ccccc1[N+](=O)[O-])Nc1ccc(Oc2ncc(Cl)cn2)c([N+](=O)[O-])c1,0.175 µM (active),0.411 µM (active),0.368 µM (active),> 100 µM (inactive),0.0339 µM (active),0.426 µM (active),0.106 µM (active),0.0456 µM (active),0.0773 µM (active),0.255 µM (active),1.78 µM (inactive),0.0767 µM (active),0.281 µM (active),0.291 µM (active),21.9 µM (inactive),0.573 µM (active),0.0855,0.126 µM (active),0.12 µM (active),2.93 µM (inactive)
N#Cc1sc2c(c1OC(=O)c1ccccc1)c(=O)n(-c1ccccc1)c(=S)n2-c1ccccc1,18.3 µM (inactive),21.2 µM (inactive),22 µM (inactive),28.8 µM (inactive),27.6 µM (inactive),25.2 µM (inactive),28.8 µM (inactive),35.9 µM (inactive),15.2 µM (inactive),20.1 µM (inactive),36.5 µM (inactive),> 10 µM (inactive),23.9 µM (inactive),31 µM (inactive),21.7 µM (inactive),18.3 µM (inactive),18.2,19.8 µM (inactive),19.2 µM (inactive),28.6 µM (inactive)
Oc1nc2nc3ccccc3nc2nc1O,> 100 µM (inactive),> 100 µM (inactive),> 100 µM (inactive),> 100 µM (inactive),> 100 µM (inactive),> 100 µM (inactive),> 100 µM (inactive),> 100 µM (inactive),> 100 µM (inactive),> 100 µM (inactive),> 100 µM (inactive),75.2 µM (inactive),> 100 µM (inactive),> 100 µM (inactive),> 100 µM (inactive),> 100 µM (inactive),> 100,> 100 µM (inactive),> 100 µM (inactive),> 100 µM (inactive)
CC(/C=C/C(=O)NO)=C\C(C)C(=O)c1ccc(N(C)C)cc1 (stereo not given),0.0668 µM (active),0.0331 µM (active),0.0259 µM (active),< 0.0177 µM (active),0.0325 µM (active),< 0.01 µM (active),< 0.01 µM (active),0.029 µM (active),0.0313 µM (active),0.0142 µM (active),< 0.01 µM (active),0.0244 µM (active),0.0184 µM (active),0.0176 µM (active),0.0409 µM (active),0.0498 µM (active),0.0313,< 0.01 µM (active),< 0.01 µM (active),0.261 µM (active)
CC(C)(CN)CN,> 100 µM (inactive),> 100 µM (inactive),> 100 µM (inactive),> 100 µM (inactive),> 100 µM (inactive),> 100 µM (inactive),> 100 µM (inactive),> 100 µM (inactive),> 100 µM (inactive),> 100 µM (inactive),> 100 µM (inactive),> 100 µM (inactive),> 100 µM (inactive),> 100 µM (inactive),> 100 µM (inactive),> 100 µM (inactive),> 100,> 100 µM (inactive),> 100 µM (inactive),> 100 µM (inactive)
COC(=O)[C@@H](NC(=O)[C@@H](CC(C)C)N(C)C(=O)[C@@H]1CCCN1C(=O)C(C)O)C(C)OC(=O)CCc1ccc(OC)cc1 (stereo not given in full) (H-[ξLac]P[dNMeL][Thr(3ξ)](Propanoyl(3-(4-MeO-Ph)))-OMe),> 100 µM (inactive),> 100 µM (inactive),> 100 µM (inactive),> 100 µM (inactive),> 100 µM (inactive),> 100 µM (inactive),> 100 µM (inactive),> 100 µM (inactive),> 100 µM (inactive),> 100 µM (inactive),> 100 µM (inactive),> 100 µM (inactive),> 100 µM (inactive),> 100 µM (inactive),> 100 µM (inactive),> 100 µM (inactive),> 100,> 100 µM (inactive),> 100 µM (inactive),> 100 µM (inactive)

# — ChEMBL document CHEMBL1201862, “PubChem BioAssay data set” (2004)
